In PMC7216583 (Parasites & Vectors, 2020):
Where a name gives a salt, the structure may show the parent alone. Read-outs that look alike come from different tables or passages of the source.

Columns and labels:
[1] = system: Toxoplasma gondii RH-2F tachyzoites; experiment: microbe, parasite or virus in culture; settings: 72 h
A375 cells = system: A375 cells; parameters: method as in library vendor description; settings: Hsp90 inhibitor; ref library vendor description; cited from earlier work
[2] = parameters: method as in library vendor description; settings: target not given; ref library vendor description; read-out: IC50 (DNA-damaging agent); cited from earlier work
Aurora A = target: Aurora A; parameters: method as in library vendor description; settings: ref library vendor description; cited from earlier work
in vitro = settings: human; for viability at 72 h: Host viability (%) mean
[3] = system: NS3/4A protease of hepatitis C virus (HCV); parameters: method as in library vendor description; settings: ref library vendor description; cited from earlier work
Kasumi-1 cells [4] = settings: in vitro; read-out: IC50 against Kasumi-1 cells; cited from earlier work
Kasumi-1 cells [5] = system: Kasumi-1 cells; parameters: dose or concentration left out as unconfirmed; settings: cited from earlier work
[6] = system: Toxoplasma gondii RH-2F tachyzoites; experiment: microbe, parasite or virus in culture; type: cell-based; settings: 72 h, read-out: IC50 for parasite growth
[7] = system: RH GFP-TgAtg8 tachyzoites; experiment: Intracellular proliferation assay; settings: NVP-AEW541 […], GSK-J4 HCl 5 μM, 24 h after 2 h infection
GFP-TgAtg8 tachyzoites [8] = experiment: Egress assay (A23187-induced); settings: compound for 24 h, 3 μM A23187 for 5 min
[9] = cited from earlier work
GFP-TgAtg8 tachyzoites [10] = experiment: Flow cytometric analysis of the parasite cell cycle (PI staining); type: cell-based, Toxoplasma gondii; settings: 8 h with compound after PDTC synchronization
Method: Flow cytometric analyses were performed as described previously. Briefly, HFFs were infected with GFP-TgAtg8 tachyzoites at a MOI = 1. At 12 hpi, the cell cycle was synchronized by adding 80 μM pyrrolidine dithiocarbamate (PDTC, Sigma-Aldrich) and incubating at 37 °C and 5% CO2 for 8 h. After removing the PDTC, cells were incubated at 37 °C and 5% CO2 for 8 h in media containing the specified compound. The extracellular parasites were removed by washing with ice-cold PBS, and the intracellular tachyzoites were isolated by passage of host cells through a 27-gauge needle and purified with a 3 μm filter. The purified parasites were fixed with ice cold ethanol at − 20 °C for 24 h, and their DNA was stained by using propidium iodide (PI) solution (40 μg/ml PI, 360 μg/ml RNase A and 2% BSA in PBS) at 37 °C for 30 min in the dark. The stained parasites were filtered with a 5 μm pore filter and analysed on a FACSCanto™II flow cytometer (BD Biosciences, CA, USA). The results were analysed on an EPICS-XL flow cytometer (Beckman Coulter, CA, USA) by using SYSTEM II software (Beckman Coulter), and the percentages of the population in each phase of the cell cycle (G1, S, and G2 +M) were calculated. At least 10,000 events were collected per sample.

T. gondii RH strain = experiment: Murine model of acute toxoplasmosis: survival; type: in vivo, BALB/c mice; settings: 50 mg/kg oral once daily for 5 days, RH tachyzoites ip, 20-day observation, n = 10; vehicle 11.9 ± 0.74 days
Method: To evaluate the ability of the two compounds to protect against acute T. gondii infection in vivo, we used a BALB/c murine model and challenged the mice with the RH-2F strain of T. gondii. Mice were divided into 4 groups consisting of 15 mice each and injected intraperitoneally with 10^3 RH strains per animal. Compounds were dissolved in DMSO and diluted in PBS prior to feeding to mice. After 4 h of infection, mice were treated for 5 consecutive days with daily oral administration of the specified compound at 50 mg/kg (once a day). Mice treated with pyrimethamine (50 mg/kg) were used as a positive control, and 1 ml PBS containing 11 μl of DMSO was used as a negative control. Within each group, 5 mice were euthanized at 7 dpi for comparison of parasite burden, and 10 mice were part of a 20-day survival experiment. Mice were monitored as described previously and scored twice per day for signs of toxoplasmosis, such as impaired mobility, difficulty in feeding, weight loss, self-mutilation and severe ascites. […] At the end of the experimental period, all remaining mice were euthanized.

RH GFP-TgAtg8 parasites = experiment: Invasion assay; settings: pre-treated 8 h, GSK-J4 HCl 5 μM, invasion for 1 h
[11] = system: human foreskin fibroblasts (HFFs); experiment: In vitro drug efficacy: dose-response host cell viability by CCK8 (TD50); type: cell-based; settings: uninfected HFFs, serial dilutions 0 to 100 μM, 72 h
Method: Each selected compound with an initial concentration of 100 μM in the culture medium was added to the first column of HFFs (~ 250 cells/well) in a 96-well half-area plate and then diluted serially across the plate by 2-fold dilutions, leaving the final column drug-free. […] Fifty tachyzoites were then added at a MOI of 1:5 to each well in six of the eight rows. After a 72 h incubation, CPRG was added, and the absorbance was measured at 570 nm. Meanwhile, to measure the effect of each compound on the viability of host cells, CCK8 reagent was added to the two rows of uninfected HFFs and absorbance at 450 nm was measured after 2 h. The assay was performed in triplicate and repeated three times.

OSA 8 cells = system: OSA 8 cells; parameters: method as in library vendor description; settings: HSP90 inhibitor; ref library vendor description; cited from earlier work
PANC1 cells = system: PANC1 cells; parameters: method as in library vendor description; settings: ref library vendor description; cited from earlier work
Capan2 cells = system: Capan2 cells; parameters: method as in library vendor description; settings: ref library vendor description; cited from earlier work
MIAPaCa2 cells = system: MIAPaCa2 cells; parameters: method as in library vendor description; settings: ref library vendor description; cited from earlier work
BxPC3 cells = system: BxPC3 cells; parameters: method as in library vendor description; settings: ref library vendor description; cited from earlier work
c-Raf-1Y340D/Y341D = system: c-Raf-1Y340D/Y341D; parameters: method as in library vendor description; settings: ref library vendor description; cited from earlier work
CDK9 = system: CDK9; parameters: method as in library vendor description; settings: ref library vendor description; cited from earlier work
human 17,20-lyase = target: human 17,20-lyase; parameters: method as in library vendor description; settings: ref library vendor description; cited from earlier work
rat 17,20-lyase = target: rat 17,20-lyase; parameters: method as in library vendor description; settings: ref library vendor description; cited from earlier work
EGFRL858R = system: EGFRL858R; parameters: method as in library vendor description; settings: ref library vendor description; cited from earlier work
EGFR(E746_A750) = system: EGFR(E746_A750); parameters: method as in library vendor description; settings: ref library vendor description; cited from earlier work
EGFRL858R/T790M = system: EGFRL858R/T790M; parameters: method as in library vendor description; settings: ref library vendor description; cited from earlier work
IGF-1R = system: IGF-1R; parameters: method as in library vendor description; settings: ref library vendor description; cited from earlier work
[12] = system: Toxoplasma gondii RH-2F tachyzoites; settings: 5 μM compound, 72 h, RH-2F in HFFs; DMSO 0%, 10 μM pyrimethamine 100% inhibition
[13] = system: human foreskin fibroblasts (HFFs)
[14] = system: NWT-21 cells (NIH3T3 stably expressing the human IGF-IR); settings: in vitro; read-out: IC50 against NWT-21 cells; cited from earlier work
NWT-21 fibrosarcoma = settings: dose of 50 mg/kg; cited from earlier work
[15] = read-out: Parasite inhibition (%) mean, preliminary screen, mean
[16] = read-out: Parasite inhibition (%) mean

CC(C)c1cc(C(=O)N2Cc3ccc(CN4CCN(C)CC4)cc3C2)c(O)cc1O [AT13387]
inhibition of growth at 5 µM [1, 15]: -1.7% | IC50 (A375 cells): 18 nM

Cn1c(CCCC(=O)O)nc2cc(N(CCCl)CCCl)ccc21 [Bendamustine HCL]
inhibition of growth at 5 µM [1, 16]: 0.4% | IC50 [2]: 50000 nM

Cc1nc(N)sc1-c1ccnc(Nc2ccc(N3CCOCC3)cc2)n1 [CYC116]
inhibition of growth at 5 µM [1, 15]: 71.7% | Ki (Aurora A): 8 nM | viability at 72 h (in vitro): 60.6%

CC(C)(C)OC(=O)N[C@H]1CCCCC/C=C\[C@@H]2C[C@@]2(C(=O)NS(=O)(=O)C2CC2)NC(=O)[C@@H]2C[C@@H](OC(=O)N3Cc4cccc(F)c4C3)CN2C1=O [Danoprevir]
inhibition of growth at 5 µM [1, 15]: 0.9% | IC50 [3]: 0.2 to 3.5 nM

CCOC(=O)CCNc1cc(N2CCc3ccccc3CC2)nc(-c2ccccn2)n1 [GSK-J4 HCl]
inhibition at 5 µM ([1]; read-out: Parasite inhibition (%) Mean ± SD): 90.4 ± 1.4% | IC50 (Kasumi-1 cells [4]): 5520 nM | leukemia infiltration in AML xenograft mouse model (Kasumi-1 cells [5]): decreased leukemia infiltration | IC50 ([6]; Toxoplasma gondii): 2370 nM | effect on Toxoplasma intracellular growth (tachyzoites per vacuole) [7]: significantly inhibited Toxoplasma intracellular growth | effect on Toxoplasma egress (GFP-TgAtg8 tachyzoites [8]): neither NVP-AEW541 nor GSK-J4 HCl inhibits Toxoplasma egress | toxicity in experimental mice ([9]; 50 mg/kg of body weight for 4–6 weeks): no apparent toxicity | percentage of parasites in G1 phase (GFP-TgAtg8 tachyzoites [10]): 70.88% | percentage of parasites in G2 phase (GFP-TgAtg8 tachyzoites [10]): 0.00% | percentage of parasites in S phase (GFP-TgAtg8 tachyzoites [10]): 29.12% | survival time of infected mice (T. gondii RH strain): 15.2 ± 1.69 days | viability at 72 h, 5 µM (in vitro; Host viability (%) Mean ± SD): 92.2 ± 3.8% | viability at 72 h (in vitro): 92.2% | effect on ability of parasites to invade host cells (RH GFP-TgAtg8 parasites): not affected | TD50 against HFF (host cell) [11]: 34.6 µM

CC(C)c1cc(-c2n[nH]c(=O)n2-c2ccc3c(ccn3C)c2)c(O)cc1O [Ganetespib (STA-9090)]
inhibition of growth at 5 µM [1, 15]: 5.1% | IC50 (OSA 8 cells): 4 nM

Nc1ccn([C@@H]2O[C@@H](CO)[C@@H](O)C2(F)F)c(=O)n1 [Gemcitabine HCl (Gemzar)]
inhibition of growth at 5 µM [1, 15]: 75.4% | IC50 (PANC1 cells): 50 nM | IC50 (Capan2 cells): 12 nM | IC50 (MIAPaCa2 cells): 40 nM | IC50 (BxPC3 cells): 18 nM | viability (in vitro): 16.8%

CCCS(=O)(=O)Nc1ccc(F)c(C(=O)c2c[nH]c3ncc(Cl)cc23)c1F [PLX-4720]
inhibition of growth at 5 µM [1, 15]: 0.2% | IC50 (c-Raf-1Y340D/Y341D): 6.7 nM

CC(C)(C)c1cnc(CSc2cnc(NC(=O)C3CCNCC3)s2)o1 [SNS-032 (BMS-387032)]
inhibition of growth at 5 µM [1, 15]: 9.9% | IC50 (CDK9): […]

CNC(=O)c1ccc2cc(C3(O)CCn4cncc43)ccc2c1 (stereo not drawn) [TAK-700 (Orteronel)]
inhibition of growth at 5 µM [1, 15]: 0.9% | IC50 (human 17,20-lyase): 38 nM | IC50 (rat 17,20-lyase): 54 nM

C=CC(=O)Nc1cccc(Oc2nc(Nc3ccc(N4CCN(C)CC4)cc3)ncc2Cl)c1 [WZ3146]
inhibition of growth at 5 µM [1, 16]: -33.7% | IC50 (EGFRL858R): 2 nM | IC50 (EGFR(E746_A750)): 2 nM

C=CC(=O)Nc1cccc(Oc2nc(Nc3ccc(N4CCN(C)CC4)cc3OC)ncc2Cl)c1 [WZ4002]
inhibition of growth at 5 µM [1, 15]: -5.9% | IC50 (EGFRL858R): […] | IC50 (EGFRL858R/T790M): […]

NVP-AEW541
IC50 (IGF-1R): 86 nM | IC50 ([6]; RH-2F-infected HFFs, serial dilutions 0 to 100 μM, β-Gal activity): 1170 nM | effect on Toxoplasma intracellular growth (tachyzoites per vacuole) [7]: not impaired | Parasite inhibition (%) Mean ± SD [12]: 91.5 ± 2.5% | effect on Toxoplasma egress (GFP-TgAtg8 tachyzoites [8]): neither NVP-AEW541 nor GSK-J4 HCl inhibits Toxoplasma egress | Host viability (%) mean [13]: 80.7% | Host viability (%) Mean ± SD ([13]; 5 µM): 80.7 ± 1.2% | toxicity in experimental mice ([9]; 50 mg/kg of body weight for 1–2 weeks): no apparent toxicity | percentage of parasites in G1 phase (GFP-TgAtg8 tachyzoites [10]): 44.25% | percentage of parasites in G2 phase (GFP-TgAtg8 tachyzoites [10]): 8.30% | percentage of parasites in S phase (GFP-TgAtg8 tachyzoites [10]): 47.45% | IC50 [14]: 1640 nM | survival time of infected mice (T. gondii RH strain): 14.6 ± 1.84 days | anti-tumour activity in mouse model (NWT-21 fibrosarcoma): had anti-NWT-21 fibrosarcoma activity | TD50 against HFF (host cell) [11]: 7.3 µM
